Reference: patent US6964966B2, “Generation triple-targeting, chiral, broad-spectrum antimicrobial 7-substituted piperidino-quinolone carboxylic acid derivatives, their preparation, compositions and use as medicaments” (Wockhardt Limited, priority 2001, dated 2005)
Values after ≈ are worked out from the molar mass of the structure shown. Where two headings read alike, the source gives them in different places.

Experiments:
[1] = tested on: Fluoroquinolone Sensitive Strains; assay: In-vitro antimicrobial test, MIC by two-fold serial agar dilution (NCCLS): fluoroquinolone sensitive strains (Table 17); assay type: cell-based
Protocol: (§1) The test method was in accordance with the standard NCCLS protocol (Methods for Dilution Antimicrobial Susceptibility Tests for Bacteria that grow Aerobicially, Approved Standards, M7-A5, Fifth Edition, January 2000).
(§2) The antibacterial activities (minimum inhibitory concentration: MIC, mcg/ml) were determined by using the two-fold serial agar dilution method recommended by NCCLS. The media used for preculture and main culture were Tryptic Soya broth (Difco) and Mueller Hinton medium (Difco), respectively. The Mueller Hinton agar was supplemented with 5% sheep blood for streptococci. Overnight cultures were diluted with buffered saline (pH 7.2) to the final cell density of 5×10^6-10^7 CFU/ml, and each bacterial suspension was applied with a replicator (Denley's multipoint inoculator, UK) onto a series of Mueller-Hinton agar plates containing antibacterial agents at various concentrations. Final inoculum was approximately 10^4 CFU/spot. The plates were incubated for 18 hrs at 37° C. The MIC was defined as the lowest concentration of an antibacterial agent that inhibits the development of visible microbial growth on agar.

[2] = tested on: Trovafloxacin-Resistant and Vancomycin-Resistant Enterococci; assay: In-vitro antimicrobial test, MIC by agar dilution (NCCLS): enterococci (Table 19); assay type: cell-based; settings: for MIC: read-out: MIC, V R E 336
From the text: The comparative antimicrobial activity of representative compounds of the invention and reference compounds against various sensitive and resistant microorganisms is given in Tables 17 to 20. The test method was in accordance with the standard NCCLS protocol (Methods for Dilution Antimicrobial Susceptibility Tests for Bacteria that grow Aerobicially, Approved Standards, M7-A5, Fifth Edition, January 2000).
as §2

[3] = tested on: Clinical Isolate MRSA 5076 with Mutations in DNA Gyrase and Topoisomerase IV as well as bearing an Efflux Pump; assay type: cell-based
Protocol: as §1, §2

J 744 (mouse macrophage) = assay: Cytotoxicity test (Alamar blue), J 744 cells (Table 23); assay type: cell-based; settings: minimum drug concentration inhibiting Alamar blue color change; 3 hrs drug exposure, then 96 hrs incubation; J 744 mouse macrophage cells
Protocol: (§3) Compounds were evaluated for their cytotoxic potential against two […] viz. […] Freshly grown cells were distributed in microtiter plates at a cell density of 10^5-10^6 cells/well and allowed to adhere and form monolayer by incubating the microtiter plate at 37° C. for 24 hrs. […] Following 3 hrs. of drug exposure, cells were washed with D-MEM and incubated further for 96 hrs. Cytotoxic effects of drugs were monitored through daily microscopic observation and by ascertaining the metabolic status through redox indicator Alamar blue. Healthy actively metabolising cells bring about colour change of Alamar blue from blue to pink within an overnight incubation. Cytotoxic drugs inhibit this reaction resulting into blue coloured wells. Minimum drug concentration inhibiting Alamar blue color change i.e. resulting into blue coloured wells for a given drug is considered cytotoxic concentration.

[4] = tested on: V79 (Chinese Hamster Lung); assay: Cytotoxicity test (Alamar blue), V79 cells (Table 23); assay type: cell-based; settings: minimum drug concentration inhibiting Alamar blue color change, 3 hrs drug exposure, then 96 hrs incubation
Protocol: as §3

[5] = tested on: Fluoroquinolone-Resistant Strains; assay: In-vitro antimicrobial test, MIC by agar dilution (NCCLS): fluoroquinolone-resistant strains (Table 18); assay type: cell-based
Protocol: as §1, §2

[6] = Phototoxicity, oral dose and UVA exposure, mice; settings: UVA 4 hours for 4 consecutive days, dose causing ear erythema and oedema
Protocol: The stock solutions for different doses were prepared freshly on the day of experimentation. Appropriate concentration of each dose was chosen to give a constant dosage volume of 0.3-0.4 ml/20 g body weight of mouse. The treated mice were exposed to UVA light source immediately after dosing for 4 hours and for 4 consecutive days. The mean light intensity in the UVA chamber was adjusted to 0.9-1.2 mW/cm^2. The total irradiation dose was approximately 18 Joules/cm^2/day. A phototoxic dose is one which causes ear erythema and oeadema.

[7] = tested on: Multidrug-Resistant (MDR) Pneumococcal Infections; assay: In-vivo antimicrobial test: systemic infection model (mouse septicemia), oral ED50 (Table 22); parameters: species or system Swiss mice; settings: oral 1 hour and 5 hours post-infection, survival on day 7, strain resistant to β-lactams, macrolides and fluoroquinolones
Protocol: The in vivo efficacy was studied through mouse septicemia model of infection in Swiss male and female mice (4 weeks old, 20+2 g weight) using 6 animals in each group. Infective organisms were inoculated intraperitonially. Compound were administered by oral route 1 hour and 5 hours post-infection. […] Appropriate comparators were included in the study.

MRSA 5027 = assay type: cell-based
[8] = Enterococcus faecalis, ATCC29212, E. faecalis ATCC 29212, read-out: MIC, E. faecalis ATCC 29212
[9] = vancomycin-resistant Enterococcus faecium 336

SMILES | MIC, E. coli ATCC 25922 [1] [µg/mL] | MIC, Cipro^R S. sanguis 941 [5] [µg/mL] | MIC, FQ^R S. pneumoniae 718 [5] [µg/mL] | MIC, MRSA 032 [5] [µg/mL] | phototoxic dose [6] | ED50 p.o. MDR S. pneumoniae 718 [7] [mg/kg] | other results
Cc1c(N2CC[C@@H](O)[C@H](C)C2)c(F)cc2c(=O)c(C(=O)O)cn(C3CC3)c12 (relative stereo) [Compound 86, trans-1-Cyclopropyl-6-fluoro-8-methyl-7-(4-hydroxy-3-methyl-1-piperidinyl)-1,4-dihydro-4-oxo-quinoline-3-carboxylic acid] |  |  |  |  |  |  | MIC [1, 8]: 0.05 µg/mL (≈ 0.134 µM); MIC [2, 9]: 3.12 µg/mL (≈ 8.33 µM); MIC, MRSA 5076 + efflux inhibitor reserpine [3]: 0.2 µg/mL; Cytotoxic concentration, J 744 Macrophage (J 744 (mouse macrophage)): >1000 µg/mL; Cytotoxic concentration, V 79 CHL [4]: >1000 µg/mL; melting point: 214 to 216 °C
Cc1c(N2CCC(O)C(C)C2)c(F)cc2c(=O)c(C(=O)O)cn(C3CC3)c12 (mixture of isomers) [Compound 84, cis/trans-1-Cyclopropyl-6-fluoro-8-methyl-7-(4-hydroxy-3-methyl-1-piperidinyl)-1,4-dihydro-4-oxo-quinoline-3-carboxylic acid] | 0.2 | 0.4 | 0.8 | 0.2 |  |  | MIC, E. faecalis ATCC 29212 ([1]; E. faecalis ATCC 29212): 0.05 µg/mL; MIC, MSSA ATCC 25923 ([1]; MSSA ATCC 25923): 0.003 µg/mL; MIC, P. aeruginosa 27853 ([1]; P. aeruginosa 27853): 3.12 µg/mL; MIC, S. pneumoniae ATCC 49619 ([1]; S. pneumoniae ATCC 49619): 0.025 µg/mL; MIC, S. sanguis ATCC 10556 ([1]; S. sanguis ATCC 10556 (Viridans Streptococci)): 0.05 µg/mL; MIC, Cipro^R S. mitis 938 [5]: 0.4 µg/mL; MIC, Trova-Resist MRSE 110 ([2]; Trovafloxacin-resistant methicillin-resistant S. epidermidis 110): 0.4 µg/mL; MIC, V R E 336 [2, 9]: 3.12 µg/mL
C[C@@H]1CN(c2c(F)c(N)c3c(=O)c(C(=O)O)cn(C4CC4)c3c2F)C[C@H](C)N1 [sparfloxacin, reference compound] |  |  |  |  | 25 mg/kg |  | 
COc1c(N2CCC(N)C(C)(C)C2)c(F)cc2c(=O)c(C(=O)O)cn(C3CC3)c12 (single isomer, unassigned; (+)) [Compound 19, (+)-1-Cyclopropyl-6-fluoro-1,4-dihydro-8-mehtoxy-7-(4-amino-3,3-dimethyl-1-piperidinyl)-4-oxo-quinoline-3-carboxylic acid] | 0.2 (≈ 0.496 µM) | 0.2 (≈ 0.496 µM) | 0.4 (≈ 0.991 µM) | 0.8 (≈ 1.98 µM) | greater than 500 mg/kg | 20 | MIC, Cipro^R S. mitis 938 [5]: 0.8 µg/mL (≈ 1.98 µM)
COc1c(N2CCC(NC(=O)OC(C)(C)C)C(C)(C)C2)c(F)cc2c(=O)c(C(=O)O)cn(C3CC3)c12 (stereo not shown) [Compound 23, 1-Cyclopropyl-6-fluoro-1,4-dihydro-8-methoxy-7-(4-t-butyloxycarbonylamino-3,3-dimethyl-1-piperidinyl)-4-oxo-quinoline-3-carboxylic acid] |  |  |  |  |  |  | melting point: 218 to 220 °C
COc1c(N2CCC(N)C(C)(C)C2)c(F)cc2c(=O)c(C(=O)O)cn(C3CC3)c12 (single isomer, unassigned; (-)) [Compound 20, (−)-1-Cyclopropyl-6-fluoro-1,4-dihydro-8-mehtoxy-7-(4-amino-3,3-dimethyl-1-piperidinyl)-4-oxo-quinoline-3-carboxylic acid] | 0.2 (≈ 0.496 µM) | 0.4 (≈ 0.991 µM) | 0.8 (≈ 1.98 µM) | 0.8 (≈ 1.98 µM) | greater than 500 mg/kg | 50 | 
COc1c(N2CCC(N)C(C)(C)C2)c(F)cc2c(=O)c(C(=O)O)cn(C3CC3)c12 (racemic) [Compound 18, (±)-1-Cyclopropyl-6-fluoro-1,4-dihydro-8-mehtoxy-7-(4-amino-3,3-dimethyl-1-piperidinyl)-4-oxo-quinoline-3-carboxylic acid] | 0.2 (≈ 0.496 µM) | 0.4 (≈ 0.991 µM) | 0.8 (≈ 1.98 µM) | 0.8 (≈ 1.98 µM) | greater than 500 mg/kg | 30 | MIC against MRSA 5027 after 10 passage in drug containing medium (MRSA 5027; after 10 passages): 0.4 µg/mL (≈ 0.991 µM); MIC against MRSA 5027, initially (MRSA 5027; before passages in drug-containing medium): 0.4 µg/mL (≈ 0.991 µM)
Cc1c(N2CC[C@H](O)[C@H](C)C2)c(F)cc2c(=O)c(C(=O)O)cn(C3CC3)c12 (relative stereo) [Compound 85, cis-1-Cyclopropyl-6-fluoro-8-methyl-7-(4-hydroxy-3-methyl-1-piperidinyl)-1,4-dihydro-4-oxo-quinoline-3-carboxylic acid] |  |  |  |  |  |  | MIC [1, 8]: 0.1 µg/mL (≈ 0.267 µM); MIC ([1]; S. sanguis ATCC 10556 (Viridans Streptococci), read-out: MIC, S. sanguis ATCC 10556): 0.025 µg/mL (≈ 0.0668 µM); MIC [2, 9]: 3.12 µg/mL (≈ 8.33 µM); Cytotoxic concentration, J 744 Macrophage (J 744 (mouse macrophage)): >1000 µg/mL; Cytotoxic concentration, V 79 CHL [4]: >1000 µg/mL
